Assay results: US7803813B2, “Substituted 2-carbonylamino-6-piperidinaminopyridines and substituted 1-carbonylamino-3-piperidinaminobenzenes as 5-HT1F agonists” (Eli Lilly and Company, priority 2003, dated 2010)
Structures can show the parent of a compound that is named as a salt.

system: rabbit saphenous vein; assay: Rabbit saphenous vein contraction; settings: not given
Experimental: Bend the tips of two 30-gauge stainless steel hypodermic needles into an L-shape and slip them into the lumen of the polyethylene tubing. Gently push vein tissue from the cannula onto the needles. Separate the needles and attach the lower needle with thread to a stationary glass rod and the upper needle with thread to a force transducer (Statham UC-3). Mount the tissues in organ baths containing 10 mL of modified Krebs' solution. Maintain tissue bath solutions at 37° C. and […] […] Apply an initial optimum resting force of 4 grams to the vein tissue. Record isometric contractions as changes in grams of force on a Beckman Dynograph with Statham UC-3 transducers and microscale accessory attachments. […] Flush the bath, allow the tissue to re-equilibrate under a 4 gram force, add test compound and record the force of contraction. Add additional compound to achieve the next concentration in a range of compound concentrations to generate cumulative agonist concentration-response curves for each test compound. Tissues can be used to generate up to two agonist concentration-response curves. […] Two important parameters can be measured with this vasoconstriction assay, saphenous vein contraction (EC50) and maximal contraction as a percentage of the maximal KCl response (%max KCl).

corrected vasoconstriction EC50 (EC50 divided by %max KCl) | SMILES
10.3 nM | CNS(=O)(=O)Cc1ccc2[nH]cc(CCN(C)C)c2c1 [sumatriptan]

same assay, conditions: Oryctolagus cuniculus

EC50 | SMILES
660 nM | CNS(=O)(=O)Cc1ccc2[nH]cc(CCN(C)C)c2c1 [sumatriptan]

system: not given; assay: not given; settings: not given

melting point | SMILES
258 to 260 °C | CN1CCC(N(C)c2cccc(NC(=O)C3CCC3)n2)CC1.Cl (hydrate or solvate)
175 °C | CN1CCC(N(C)c2cc(F)cc(NC(=O)c3ccc(F)cc3)c2)CC1 (as salt: hydrochloric acid salt)
152.4 °C | CN(c1cccc(NC(=O)c2ccc(F)cc2)n1)C1CCNCC1.Cl
172 °C | CN1CCC(N(C)c2cccc(NC(=O)c3ccc(F)cc3Cl)c2)CC1.Cl.Cl
126 to 128 °C | CN1CCC(N(C)c2cccc(NC(=O)c3cccs3)n2)CC1.Cl
283 to 286 °C | CN1CCC(N(C)c2cccc(NC(=O)c3c(F)cccc3Cl)n2)CC1.Cl (hydrate or solvate)
214 to 217 °C | CN1CCC(N(C)c2cccc(NC(=O)c3c(F)cccc3Cl)c2)CC1.Cl.Cl
90 to 92 °C | CN1CCC(N(C)c2cccc(NC(=O)c3ccccc3Cl)n2)CC1.Cl (hydrate or solvate)
180 °C | CN1CCC(Nc2cccc(NC(=O)c3ccc(F)cc3Cl)c2)CC1.Cl.Cl
202 °C (dec.) | C[C@H]1C[C@@H](Nc2cccc(NC(=O)c3ccc(F)cc3Cl)c2)CCN1.Cl
91 to 94 °C | C[C@H]1C[C@@H](Nc2cccc(NC(=O)c3ccc(F)cc3Cl)c2)CCN1C.Cl
198 °C (dec.) | CN1CCC(Nc2cccc(NC(=O)c3c(F)cccc3F)c2)CC1.Cl.Cl
196 to 197 °C | CN1CCC(N(C)c2cccc(NC(=O)c3ccccc3Br)c2)CC1.Cl.Cl
82.4 °C | Cc1ccccc1C(=O)Nc1cccc(N(C)C2CCN(C)CC2)c1.Cl
262 °C (dec.) | CN1CCC(Nc2cccc(NC(=O)c3ccc(F)cc3F)c2)CC1.Cl.Cl
199 to 200 °C | CN1CCC(N(C)c2cccc(NC(=O)c3c(F)cc(F)cc3F)c2)CC1.Cl.Cl
76.1 °C | CN1CCC(N(C)c2cccc(NC(=O)c3ccc(F)cc3)c2)CC1.Cl
258 to 260 °C | CN1CCC(N(C)c2cccc(NC(=O)C3CC3)n2)CC1.Cl (hydrate or solvate)
84.5 °C | CN1CCC(N(C)c2cccc(NC(=O)c3ccccc3C(F)(F)F)c2)CC1.Cl
257 °C (dec.) | CN1CCC(Nc2cccc(NC(=O)c3c(F)cc(F)cc3F)c2)CC1.Cl.Cl
81.6 °C | CN(c1cccc(NC(=O)c2ccc(F)cc2)n1)C1CCN(CC2CC2)CC1.Cl
75.6 °C | CCN1CCC(N(C)c2cccc(NC(=O)c3ccc(F)cc3)n2)CC1.Cl
152.1 °C | CN(c1cccc(NC(=O)c2ccc(F)cc2Cl)n1)C1CCNCC1.Cl
85.8 °C | CC(C)n1cc(CCN2CCC(N(C)c3cccc(NC(=O)c4ccc(F)cc4)n3)CC2)cn1.Cl
159 to 162 °C | CN1CCC(Nc2cccc(NC(=O)c3ccccc3OC(F)(F)F)c2)CC1.Cl.Cl
308 °C (dec.) | CN1CCC(N(C)c2cccc(NC(=O)c3c(F)cccc3F)n2)CC1.Cl (hydrate or solvate)
159 to 162 °C | C[C@@H]1C[C@H](Nc2cccc(NC(=O)c3ccc(F)cc3Cl)c2)CCN1C.Cl

melting point | SMILES
192 to 194 °C | CN1CCC(Nc2cccc(NC(=O)c3c(F)cccc3Cl)c2)CC1.Cl.Cl
216 to 218 °C | CCC(=O)Nc1cccc(N(C)C2CCN(C)CC2)n1.Cl (hydrate or solvate)
302 °C (dec.) | CN1CCC(N(C)c2cccc(NC(=O)c3c(F)cc(F)cc3F)n2)CC1.Cl (hydrate or solvate)
84.7 °C | CCCN1CCC(N(C)c2cccc(NC(=O)c3ccc(F)cc3)n2)CC1.Cl
133 to 136 °C | CN1CCC(N(C(=O)C2CC2)c2cccc(NC(=O)c3ccc(F)cc3Cl)c2)CC1.Cl
231.4 °C (dec.) | CN1CCC(Nc2cccc(NC(=O)c3ccc(F)c(F)c3F)n2)CC1.Cl
274 to 277 °C | CN1CCC(N(C)c2cccc(NC(=O)c3ccncc3)n2)CC1.Cl (hydrate or solvate)
164.2 °C | CN1CCC(N(C)c2cccc(NC(=O)c3c(Cl)cccc3Cl)c2)CC1.Cl
175 to 180 °C | CN1CCC(N(C)c2cc(F)cc(NC(=O)c3sccc3Br)c2)CC1 (as salt: hydrochloric acid salt)
255 to 257 °C | Cl.Cl.O=C(Nc1cccc(NC2CCNCC2)c1)c1ccc(F)cc1Cl
257.5 °C | CN(c1cccc(NC(=O)c2ccc(F)cc2Cl)n1)C1CCN(CC2CC2)CC1.Cl
192 to 193 °C | CN1CCC(Nc2cccc(NC(=O)c3ccccc3Br)c2)CC1.Cl.Cl
84.9 °C | CN1CCC(Nc2cccc(NC(=O)c3ccc(F)cc3C(F)(F)F)n2)CC1.Cl
258 °C (dec.) | CCCN1CCC(N(C)c2cccc(NC(=O)c3ccc(F)cc3Cl)n2)CC1.Cl
102 to 104 °C | CN1CCC(N(C)c2cccc(NC(=O)c3ccccc3OC(F)(F)F)n2)CC1.Cl (hydrate or solvate)
229 to 231 °C | CN1CCC(N(C)c2cccc(NC(=O)c3ccc(F)cc3Cl)n2)CC1.Cl (hydrate or solvate)
170 to 175 °C | CN1CCC(N(C)c2cc(F)cc(NC(=O)c3ccccc3Cl)c2)CC1 (as salt: hydrochloric acid salt) (hydrate or solvate)
100 to 102 °C | CN1CCC(N(C)c2cccc(NC(=O)c3ccc(F)cc3C(F)(F)F)n2)CC1.Cl (hydrate or solvate)
96.7 °C | CC(C)n1cc(CCN2CCC(N(C)c3cccc(NC(=O)c4ccc(F)cc4Cl)n3)CC2)cn1.Cl
206 to 208 °C | CN1CCC(Nc2cccc(NC(=O)c3ccccc3Cl)c2)CC1.Cl.Cl
132.9 °C | CCN1CCC(N(C)c2cccc(NC(=O)c3ccc(F)cc3Cl)n2)CC1.Cl
165 to 168 °C | CN1CCC(N(C)c2cccc(NC(=O)c3ccc(F)cc3F)c2)CC1.Cl.Cl
250 to 252 °C | CN1CCC(N(C)c2cccc(NC(=O)C3CCCCC3)n2)CC1.Cl
250 to 252 °C | CN1CCC(N(C)c2cccc(NC(=O)c3ccc(F)cc3)n2)CC1.Cl (hydrate or solvate)
116 to 119 °C | CN1CCC(N(C)c2cccc(NC(=O)c3ccco3)n2)CC1.Cl (hydrate or solvate)
182 to 185 °C | C[C@@H]1C[C@H](Nc2cccc(NC(=O)c3ccc(F)cc3Cl)c2)CCN1.Cl
175 °C | CN1CCC(N(C)c2cc(F)cc(NC(=O)c3ccc(F)cc3F)c2)CC1 (as salt: hydrochloric acid salt)
